In patent US7265152B2 (ViroPharma Incorporated, priority 2002, dated 2007) one finds EC50 and IC50 data, which are given here for 21 molecules.

Where two headings read alike, the source gives them in different places.

The test system of test [1] is HCV replicon (BB7 sequence) in Huh-7-Clone A cells. The experiment in a line: HCV replicon assay: ELISA of NS5A protein in replicon-containing cells (Inhibition of Viral RNA Replication). It is filed as cell-based. An excerpt:
Antiviral activity of representative compounds of the invention was first evaluated in a human liver-derived cell line (Huh-7-Clone A) containing the HCV replicon (BB7 sequence) (See Lohmann et al. Science. 1999, 285:110-3; Blight K J et al., Science. 2000, 290:1972-4; Pietschmann, T. et al., J. Virol. 2001, 73:1252-1264; and Lohmann, V. et al., J. Virol. 2001, 75:1437-1449). The HCV replicon is a subgenomic viral RNA that expresses the HCV proteins required for its own replication. These proteins include non-structural proteins NS3, NS4A, NS4B, NS5A and NS5B. The replicon also contains a foreign gene encoding a drug-selectable marker (neomycin phosphotransferase) to allow for G418 (neomycin) selection of cells that contain the replicon.
An ELISA (enzyme-linked immunosorbant assay) was used to determine the effect of compounds within the scope of the invention on the amount of HCV NS5A protein produced after a 72-hour incubation of the replicon-containing cells in the presence of varying concentrations of compound. COSTAR® 96-well cell culture plates were used but other known cell culture plates may be used. After incubation, media is removed from wells and the cells are fixed to the assay plate using 0.05% glutaraldehyde. The glutaraldehyde is then washed off using phosphate-buffered saline (PBS) following a 1 hour incubation and cells are blocked for non-specific antibody binding using for example SUPERBLOCK® reagent (blocking buffer) in PBS. The blocking agent is rinsed from the cells with PBS after 1 hour at 37° C. and primary monoclonal antibody is added to each well containing compound. Primary antibody is incubated for 1 hour at 37° C. and rinsed 3 times with PBS containing 0.02% TWEEN-20™ before addition of Horseradish Peroxidase (HRP) conjugated secondary antibody. HRP is incubated for 1 hour at 37° C. and rinsed several times, first with PBS/TWEEN-20™ followed by PBS alone. To quantify peroxidase activity, 3,3′,5, 5′-tetramethylbenzidine (TMB) substrate is added to the plate and after 30 minutes, the plates are read in an ELISA plate reader at an OD of 650 nm. Compound dose response was measured in an 8-point dose curve diluted serially to determine the inhibitory concentration at 50% (EC50 value). […] Ranges of 50% effective concentrations (EC50s) for representative compounds within the scope of this invention are listed in Table 1. Preferred compounds have 50% effective concentrations at about 30 μM or less, more preferred compounds have 50% effective concentrations at about 5 μM or less, and most preferred compounds have 50% effective concentrations at about 0.5 μM or less.

In another test the target is T1, HCV NS5B (Hepatitis C virus genotype 1b, UniProt Q9WMX2).
T1 construct: fusion protein, of which the carboxyl terminal 21 amino acids were removed to enhance its solubility; His tag (GSHHHHHH); made in house; host or cells: E. coli
The experiment in a line: Inhibition of viral RNA-dependent RNA polymerase (RdRp), in vitro biochemical assay. Details: species or system HCV genotype 1b virus (BB7). Particulars: read-out: HCV pol-BB7 IC50. An excerpt:
The HCV NS5B-directed RdRp activity was established and characterized in a standard in vitro biochemical assay using a purified HCV NS5B protein derived from the consensus sequence of a patient infected with HCV genotype 1b virus (BB7). (See Blight K J et al., Science. 2000, 290:1972-4). The NS5B consensus sequence was cloned and expressed in E. coli as a histidine tagged (GSHHHHHH) fusion protein, of which the carboxyl terminal 21 amino acids were removed to enhance its solubility.
In addition to evaluating their activity in the replicon assay, representative compounds within the scope of the present invention, as shown in examples 1-453 of Table 1, were also evaluated for antiviral activity using this assay. A measure of the inhibitory activity of compounds of the invention may be expressed as IC50 values. IC50 values represent the concentration of the compound at which 50% of the RdRp activity is inhibited. […] These low concentrations of test compounds required to achieve 50% inhibition of the RdRp activity indicate that the compounds of the invention are effective at inhibiting RNA synthesis by viral RdRp enzymes.

The mark [2] stands for this setting: Hepatitis C virus, Huh-7-Clone A, NS5A ELISA, 72-hour incubation, ranges of EC50, read-out: Replicon.
The mark [3] stands for this setting: purified His-tagged NS5B (BB7), carboxyl terminal 21 amino acids removed.
[4] abbreviates: Hepatitis C virus, HCV replicon, range of EC50, read-out: Replicon.
[5] abbreviates: HCV NS5B RdRp, BB7, reported as range class.
[6] abbreviates: Hepatitis C virus, ranges of EC50 in HCV replicon assay, read-out: Replicon.
Setting [7] is: Hepatitis C virus, HCV replicon assay, ranges of EC50, read-out: Replicon.
Setting [8] is: HCV NS5B RdRp, BB7, class symbols A-D.
Where [9] appears, read: HCV NS5B polymerase, BB7 (genotype 1b), values given as range classes A-D.

What is called IC50 is the midpoint of a concentration-inhibition curve. On to `CNC(=O)c1c(-c2ccc(C)c(F)c2)oc2ccc(OC)cc12` [Example 69, 2-(3-Fluoro-4-methyl-phenyl)-5-methoxy-benzofuran-3-carboxylic acid methylamide], for which the EC50 in test [1] (setting [2]) is less than 10 µM. Moreover, the IC50 at HCV NS5B (setting [3]) was no more than 500 nM.
Regarding `CNC(=O)c1c(-c2ccc(F)cc2)oc2cc(N3CCOCC3)c(OC(C)c3ccc(F)cc3)cc12` (stereo not drawn) [Example 212, 2-(4-Fluoro-phenyl)-5-[1-(4-fluoro-phenyl)-ethoxy]-6-morpholin-4-yl-benzofuran-3-carboxylic acid methylamide], the EC50 in test [1] (setting [4]) is less than 1 µM. Also, the IC50 on HCV NS5B (setting [5]) is no more than 500 nM.
Take `CNC(=O)c1c(-c2ccc(F)cc2)oc2cc(OC)c(O)cc12` [Example 165, 2-(4-Fluoro-phenyl)-5-hydroxy-6-methoxy-benzofuran-3-carboxylic acid methylamide]: the EC50 in test [1] (setting [6]) is greater than 30 µM. The IC50 on HCV NS5B (HCV NS5B RdRp, BB7 genotype 1b) was 5000 to 30000 nM.
In the case of `CCOc1cc2c(C(=O)NC)c(-c3ccc(F)cc3)oc2cc1N(CC)S(C)(=O)=O` [Example 32, 5-Ethoxy-6-(ethyl-methanesulfonyl-amino)-2-(4-fluoro-phenyl)-benzofuran-3-carboxylic acid methylamide], the EC50 in test [1] (setting [2]) was less than 1 µM. Moreover, the IC50 on HCV NS5B (setting [3]) was no more than 500 nM.
As to `CCS(=O)(=O)Nc1cc2oc(-c3ccc(F)cc3)c(C(=O)NC)c2cc1OC(C)C` [Example 156], the EC50 in test [1] (Hepatitis C virus, read-out: Replicon (μM)) was less than 10 µM. Also, the IC50 on HCV NS5B (HCV NS5B RdRp, BB7 genotype 1b) is no more than 500 nM.
For `CNC(=O)c1c(-c2ccccc2)oc2cc(OC)c(OC)cc12` [Example 94, 5,6-Dimethoxy-2-phenyl-benzofuran-3-carboxylic acid methylamide], in test [1] (setting [6]), the EC50 is less than 1 µM. Also, the IC50 at HCV NS5B (HCV NS5B RdRp, BB7 genotype 1b) is no more than 500 nM.
With `CNC(=O)c1c(-c2ccc(F)cc2)oc2cc(N3CCOCC3)c(OCc3cnc[nH]3)cc12` [Example 225, 2-(4-Fluoro-phenyl)-5-(3H-imidazol-4-ylmethoxy)-6-morpholin-4-yl-benzofuran-3-carboxylic acid methylamide], the EC50 in test [1] (setting [4]) was less than 10 µM. The IC50 at HCV NS5B (setting [5]) is no more than 500 nM.
For the molecule `CNC(=O)c1c(-c2ccc(F)cc2)oc2cc(-c3cc[nH]c3)c(OC)cc12` [Example 317, 2-(4-Fluoro-phenyl)-5-methoxy-6-(1H-pyrrol-3-yl)-benzofuran-3-carboxylic acid methylamide], in test [1] (setting [7]), the EC50 is less than 1 µM. The half-maximal inhibitory concentration (IC50) on HCV NS5B (setting [8]) fell in the range of 5000 to 30000 nM.
With `CNC(=O)c1c(-c2occc2C)oc2ccc(OC(C)C)cc12` [Example 121, 5-Isopropoxy-2-(3-methyl-furan-2-yl)-benzofuran-3-carboxylic acid methylamide], the EC50 in test [1] (setting [6]) is less than 30 µM. Moreover, at HCV NS5B (HCV NS5B RdRp, BB7 genotype 1b), the concentration for half-maximal inhibition (IC50) fell in the range of 500 to 5000 nM.
As for `CNC(=O)c1c(-c2ccc(F)cc2)oc2cc(N(Cc3cscn3)S(C)(=O)=O)c(OC(C)C)cc12` [Example 36, 2-(4-Fluoro-phenyl)-5-isopropoxy-6-(methanesulfonyl-thiazol-4-ylmethyl-amino)-benzofuran-3-carboxylic acid methylamide], the EC50 in test [1] (setting [2]) was less than 1 µM. In addition, at HCV NS5B (setting [3]), the IC50 is no more than 500 nM.
`CNC(=O)c1c(-c2ccc(F)cc2)oc2cc(N(C(C)C)S(C)(=O)=O)c(OC)cc12` [Example 221, 2-(4-Fluoro-phenyl)-6-(isopropyl-methanesulfonyl-amino)-5-methoxy-benzofuran-3-carboxylic acid methylamide]: in test [1] (setting [4]), the EC50 was less than 1 µM. Further, the IC50 at HCV NS5B (setting [5]) was no more than 500 nM.
Regarding `CNC(=O)c1c(-c2ccc(F)cc2)oc2cc(NS(C)(=O)=O)c(OC)cc12` [Example 122, 2-(4-Fluoro-phenyl)-6-methanesulfonylamino-5-methoxy-benzofuran-3-carboxylic acid methylamide], the EC50 in test [1] (setting [6]) was less than 1 µM. In addition, the IC50 at HCV NS5B (HCV NS5B RdRp, BB7 genotype 1b) was no more than 500 nM.
As for “4-Chloro-6-[ethyl-(2-methoxy-acetyl)-amino]-2-(4-fluoro-phenyl)-5-methoxy-benzofuran-3-carboxylic acid methylamide [Example 432]”, the EC50 in test [1] (HCV replicon assay, ranges of 50% effective concentration (EC50), read-out: Replicon) was less than 10 µM. For the same molecule, the IC50 at HCV NS5B (setting [9]) was in the range of 500 to 5000 nM.
Turning to `CNC(=O)c1c(-c2ccc(F)cc2)oc2cc(C(=O)O)c(OC(C)C)cc12` [Example 187, 2-(4-Fluoro-phenyl)-5-isopropoxy-3-methylcarbamoyl-benzofuran-6-carboxylic acid], the EC50 in test [1] (setting [4]) was less than 10 µM. Moreover, the IC50 at HCV NS5B (setting [5]) is 5000 to 30000 nM.
For `CNC(=O)c1c(-c2ccc(F)cc2)oc2cc(N(C)S(C)(=O)=O)c(OCc3nnsc3Cl)cc12` [Example 397, 5-(5-Chloro-[1,2,3]thiadiazol-4-ylmethoxy)-2-(4-fluoro-phenyl)-6-(methanesulfonyl-methyl-amino)-benzofuran-3-carboxylic acid methylamide], in test [1] (Hepatitis C virus, HCV replicon assay, ranges of 50% effective concentration (EC50), read-out: Replicon), the EC50 was less than 1 µM. On HCV NS5B (setting [9]), the IC50 is no more than 500 nM.
In the case of `CC(C)NC(=O)c1c(-c2ccc(F)cc2)oc2cc(NS(C)(=O)=O)c(OC(C)C)cc12` [Example 197, 2-(4-Fluoro-phenyl)-5-isopropoxy-6-methanesulfonylamino-benzofuran-3-carboxylic acid isopropylamide], the EC50 in test [1] (setting [4]) was less than 10 µM. Further, the IC50 on HCV NS5B (setting [5]) lay in the range of 5000 to 30000 nM.
Turning to `CNC(=O)c1c(-c2ccc(F)cc2)oc2cc(N3CCOCC3)c(OC(F)F)cc12` [Example 172, 5-Difluoromethoxy-2-(4-fluoro-phenyl)-6-morpholin-4-yl-benzofuran-3-carboxylic acid methyalmide], the EC50 in test [1] (setting [4]) is less than 1 µM. At HCV NS5B (setting [5]), the IC50 was no more than 500 nM.
With `CNC(=O)c1c(-c2ccc(F)cc2)oc2cc(NS(=O)(=O)CCCCl)c(OC(C)C)cc12` [Example 133, 6-(3-Chloro-propane-1-sulfonylamino)-2-(4-fluoro-phenyl)-5-isopropoxy-benzofuran-3-carboxylic acid methylamide], the EC50 in test [1] (setting [6]) was less than 1 µM. Moreover, the IC50 on HCV NS5B (HCV NS5B RdRp, BB7 genotype 1b) was 500 to 5000 nM.
As to `CNC(=O)c1c(-c2ccc(F)cc2)oc2cc(N(Cc3ccncc3)S(C)(=O)=O)c(OC)cc12` [Example 299, 2-(4-Fluoro-phenyl)-6-(methanesulfonyl-pyridin-4-ylmethyl-amino)-5-methoxy-benzofuran-3-carboxylic acid methylamide], the EC50 in test [1] (setting [7]) is less than 1 µM. Further, on HCV NS5B (setting [8]), the IC50 is no more than 500 nM.
Turning to `CCN(C)c1cc2oc(-c3ccc(F)cc3)c(C(=O)NC)c2c(Cl)c1OC` [Example 362, 4-Chloro-6-(ethyl-methyl-amino)-2-(4-fluoro-phenyl)-5-methoxy-benzofuran-3-carboxylic acid methylamide], in test [1] (setting [7]), the EC50 was less than 10 µM. Moreover, the half-maximal inhibitory concentration (IC50) on HCV NS5B (HCV NS5B RdRp, BB7, activity class) was no more than 500 nM.
With `CNC(=O)c1c(-c2ccc(F)cc2)oc2cc(N(Cc3csc(C)n3)S(C)(=O)=O)c(OC(C)C)cc12` [Example 271, 2-(4-Fluoro-phenyl)-5-isopropoxy-6-[methanesulfonyl-(2-methyl-thiazol-4-ylmethyl)-amino]-benzofuran-3-carboxylic acid methylamide], the EC50 in test [1] (setting [7]) is less than 10 µM. Also, the half-maximal inhibitory concentration (IC50) at HCV NS5B (setting [8]) is no more than 500 nM.
